Key:
[1] = biological target: T1, human recombinant MMP-2 (Homo sapiens, UniProt P08253); experiment: Measurement of the activity of metalloproteinase MMP-2 (DQ-gelatin fluorescence); format: biochemical; settings: incubation concentration 0.0018 % DE; relative to the control
T1 construct: purchased CALBIOCHEM PF023
T1 sequence (P08253 110-660): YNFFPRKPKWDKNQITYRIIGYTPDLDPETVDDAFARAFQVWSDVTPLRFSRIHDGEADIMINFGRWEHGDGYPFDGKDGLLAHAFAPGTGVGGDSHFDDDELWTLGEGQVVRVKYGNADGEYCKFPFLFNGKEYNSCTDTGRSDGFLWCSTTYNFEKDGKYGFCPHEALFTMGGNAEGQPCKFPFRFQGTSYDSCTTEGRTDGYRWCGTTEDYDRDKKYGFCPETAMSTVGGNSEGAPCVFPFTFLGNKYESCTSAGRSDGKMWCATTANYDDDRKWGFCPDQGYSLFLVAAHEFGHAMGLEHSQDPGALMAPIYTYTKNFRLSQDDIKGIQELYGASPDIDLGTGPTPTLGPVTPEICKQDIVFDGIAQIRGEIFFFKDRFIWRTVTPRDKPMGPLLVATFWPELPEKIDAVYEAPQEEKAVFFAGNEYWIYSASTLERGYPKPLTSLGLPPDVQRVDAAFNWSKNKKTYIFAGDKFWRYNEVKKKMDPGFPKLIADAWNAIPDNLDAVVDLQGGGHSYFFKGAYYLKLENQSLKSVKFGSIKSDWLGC
Procedure: (§1) The objective of this test is to evaluate the inhibitory capacity of a product on the enzymatic activity of MMP-2 and MMP-9. This test is based on an enzymatic reaction between purified MMP-2 or MMP-9 and a specific substrate containing a chromophore. The degradation of the chromogenic substrate by the enzyme leads to the production of fluorescence monitored by fluorimetry.
(ii)—A human recombinant MMP-2 (CALBIOCHEM, PF023) is incubated, at 0.1 μg/ml, in the presence of the product and the chromogenic substrate, DQ-gelatin conjugated with fluorescein (MOLECULAR PROBE, D12054) at 10 μg/ml. The reaction mixture is incubated overnight at room temperature, protected from light. The quantity of DQ-gelatin degraded is measured by fluorescence (Ex: 355 nm; Em: 460 nm).
(§2) The reactivity of the enzymatic system is systematically monitored for the measurement of the effect of a metalloproteinase inhibitor, 1,10-phenanthroline. The results are presented in the following table, as a percentage inhibition of the enzymatic activity of MMP-2 and MMP-9 relative to the control.

[2] = biological target: T2, human recombinant MMP-9 (Homo sapiens, UniProt P14780); experiment: Measurement of the activity of metalloproteinase MMP-9 (DQ-gelatin fluorescence); format: biochemical; settings: incubation concentration 0.0018 % DE; relative to the control
T2 construct: purchased CALBIOCHEM PF024
Procedure: as §1
(i)—A human recombinant MMP-9 (CALBIOCHEM, PF024) is incubated, at 0.05 μg/ml, in the presence of the product and the chromogenic substrate, DQ-gelatin conjugated with fluorescein (MOLECULAR PROBE, D12054) at 10 μg/ml. The reaction mixture is incubated overnight at room temperature, protected from light. The quantity of DQ-gelatin degraded is measured by fluorescence (Ex: 355 nm; Em: 460 nm).
as §2

[3] = test system: β-adrenergic receptors; experiment: Involvement of β-adrenergic receptors in lipolytic activity: fatty acid assay in human adipocytes with propranolol; format: cell-based
Procedure: The supernatant media are collected. The nonesterified fatty acids are assayed by spectrophotometry with the aid of a commercial kit in these supernatant media (NEFA C kit, WAKO). The assay is performed against a fatty acid calibration series.
for the inhibition induced by the β-adrenergic antagonist, by the use of a β-adrenergic agonist, isoprenaline.

[4] = test system: human adipocytes; experiment: Assay of the free fatty acids (lipolytic activity) in isolated human adipocytes in suspension; format: cell-based; settings: for Free fatty acid concentration: 2 h at 37° C., mean of five assays
Source text: Hydrolysis of the triglycerides to nonesterified fatty acids and glycerol is called lipolysis. Triglycerides are stored in the adipocytes and constitute the fat reserve. For this reserve to diminish, which is the desired aim when slimming products are used, the triglycerides should be hydrolysed in the form of fatty acids, which in their case can be removed from the cell. Hydrolysis of the triglycerides calls into play a hormone-dependent lipase which must be phosphorylated in order to be active. The phosphorylation step uses a kinase and cAMP. An increase in the cAMP content of the adipocytes is necessary for promoting the activity of the lipase and therefore the lipolysis. The method described consists in incubating the products in the presence of human adipocytes in suspension, followed by […].
The test is carried out using human adipocytes isolated and prepared as a cellular suspension. The adipocytes are isolated from the subcutaneous abdominal adipose tissue recovered during plastic surgery operations (abdominal plastic surgery operations) performed on women. The cells are isolated from fresh tissue. The adipose tissue is isolated and dissociated by the action of a collagenase (SIGMA™, 1 mg/ml, 30 minutes at 37° C., gentle stirring). Collagenase digests the connective tissue present in the adipose tissue. After digestion, the cells are filtered and washed in an appropriate culture medium containing MEM medium free of phenol red, free of glutamine (SIGMA)+2.2 mg/ml of sodium bicarbonate (GIBCO)+50 IU of penicillin (BIOWHITTAKER™)+50 μg/ml of streptomycin (BIOWHITTAKER™)+1% (v/v) of L-glutamine (BIOWHITTAKER™)+0.5% of lipid-free serum albumin (SIGMA™). The adipocyte suspension is used immediately after its preparation.
The test products are diluted in the adipocyte culture medium. They are incubated with the cells in suspension for two hours at 37° C. (250 μl of product+250 μl of adipocyte suspension).
After the incubation, the cell lysis is checked visually by the presence of a lipid layer at the surface of the cellular suspension. The supernatant media are collected. The free fatty acids are assayed by spectrophotometry using a commercial kit (NEFA™ C kit, WAKO), with reference to a fatty acid calibration series. The lypolytic activity of the products is evaluated relative to a control group incubated in the presence of adipocytes and in the absence of product. […] Five assays are performed for each of the test products which are as follows:
This assay is repeated by carrying out new assays at different concentrations.

[5] = biological target: T3, hyaluronidase (SIGMA), purified from bovine testicles (Bos taurus, UniProt Q2YDK3); experiment: Measurement of the activity of hyaluronidase (purified enzyme); format: biochemical; settings: hyaluronidase test, 60 minutes at 37° C.
T3 construct: purified from bovine testicles; purchased SIGMA; host or cells: bovine testicles
T3 sequence (Q2YDK3 36-553): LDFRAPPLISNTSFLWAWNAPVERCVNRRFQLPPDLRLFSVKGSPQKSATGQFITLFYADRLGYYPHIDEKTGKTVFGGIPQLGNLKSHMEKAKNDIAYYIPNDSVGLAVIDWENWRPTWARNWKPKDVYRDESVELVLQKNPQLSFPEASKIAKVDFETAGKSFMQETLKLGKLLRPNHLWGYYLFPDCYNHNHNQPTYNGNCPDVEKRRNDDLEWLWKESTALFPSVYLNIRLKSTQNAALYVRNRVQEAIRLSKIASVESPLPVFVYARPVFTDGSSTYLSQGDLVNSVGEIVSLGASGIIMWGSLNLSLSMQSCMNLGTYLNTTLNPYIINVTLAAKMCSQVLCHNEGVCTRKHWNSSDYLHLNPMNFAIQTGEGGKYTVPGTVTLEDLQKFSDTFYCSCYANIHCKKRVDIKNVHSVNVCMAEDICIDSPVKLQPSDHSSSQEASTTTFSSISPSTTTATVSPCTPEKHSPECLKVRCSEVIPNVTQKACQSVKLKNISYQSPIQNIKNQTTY
Procedure: The objective of this test is to measure the activity of hyaluronidase. This enzyme, which is naturally found in the skin, degrades hyaluronic acid. The study is carried out in vitro on the purified enzyme.
The hyaluronidase (SIGMA), purified from bovine testicles, is incubated at 0.01 U/ml in the presence of hyaluronic acid at 0.02 mg/ml, with or without test product. The incubation is carried out for 60 minutes at 37° C.
Evaluation of the effects: After the incubation, the hyaluronic acid not degraded by the enzyme is precipitated by a 24 mM sodium acetate/79. mM acetic acid mixture (10 minutes, room temperature). The precipitate is measured by spectrophotometry at 590 nm.
The effect of the test products is compared to that observed in the presence of dipotassium glycyrrhizinate, a reference hyaluronidase inhibitor.

[6] = biological target: T4, α2-adrenergic receptors (Homo sapiens, UniProt P08913); experiment: Involvement of α2-adrenergic receptors in lipolytic activity: fatty acid assay in human adipocytes with brimonidine; format: cell-based
T4 construct: adrenergic receptors found at the surface of the adipocytes; endogenous in cells; host or cells: human adipocytes from subcutaneous abdominal adipose tissue of women
T4 sequence (P08913 1-465): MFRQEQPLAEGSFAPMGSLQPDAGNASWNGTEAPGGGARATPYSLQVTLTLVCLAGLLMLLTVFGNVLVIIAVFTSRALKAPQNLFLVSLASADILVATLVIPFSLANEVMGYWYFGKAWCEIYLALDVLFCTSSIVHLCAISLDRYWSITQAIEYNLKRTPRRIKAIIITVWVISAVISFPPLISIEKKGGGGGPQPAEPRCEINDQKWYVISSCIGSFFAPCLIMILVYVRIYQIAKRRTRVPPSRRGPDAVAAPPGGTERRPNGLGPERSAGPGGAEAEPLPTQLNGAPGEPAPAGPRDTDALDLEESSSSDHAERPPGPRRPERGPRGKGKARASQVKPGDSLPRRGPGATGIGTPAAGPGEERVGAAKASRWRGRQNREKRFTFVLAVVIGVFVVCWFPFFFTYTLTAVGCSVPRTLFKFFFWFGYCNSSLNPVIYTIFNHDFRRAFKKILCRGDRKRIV
Source text: It involves determining, in an “in vitro” model of isolated human adipocytes, the involvement of the α2- and/or β-adrenergic receptors on the lipolytic activity of the test product. Lipolysis is indeed under the control of the adrenergic receptors found at the surface of the adipocytes. Two types of receptors coexist:
A lipolytic product can call into play these receptors either by stimulating the β-adrenergic receptors (agonist), or by inhibiting the α2-adrenergic receptors (antagonist). The method described consists in incubating the product in the presence of human adipocytes in suspension, followed by the measurement of the lipolytic activity by assaying fatty acids. The adipocytes are incubated in the presence of pharmacological agents, α2-adrenergic agonists or β-adrenergic antagonists, known to inhibit lipolysis. The trial consists in studying the effect of the product on the inhibition of lipolysis induced by these pharmacological agents.
The test is carried out using human adipocytes isolated and prepared as a cellular suspension. The adipocytes are isolated from the subcutaneous abdominal adipose tissue recovered during plastic surgery operations (abdominal plastic surgery operations) performed on women. The cells are isolated from fresh tissue. To isolate the cells, the adipose tissue is isolated and dissociated by the action of a collagenase (SIGMA™, 1 mg/ml, 30 minutes at 37° C., gentle stirring). Collagenase digests the connective tissue present in the adipose tissue. […]
The product is incubated with the cells in suspension for two hours at 37° C. (250 μl of product+250 μl of adipocyte suspension). in the presence of an α2-adrenergic agonist: brimonidine at 10^−9 M (concentration previously determined to inhibit basal lipolysis by about 50%), and The supernatant media are collected. […]

[7] = incubation concentration 0.0001 wt % DE
[8] = incubation concentration 0.0010 wt % DE

T2 sequence (P14780 107-707 limits assumed): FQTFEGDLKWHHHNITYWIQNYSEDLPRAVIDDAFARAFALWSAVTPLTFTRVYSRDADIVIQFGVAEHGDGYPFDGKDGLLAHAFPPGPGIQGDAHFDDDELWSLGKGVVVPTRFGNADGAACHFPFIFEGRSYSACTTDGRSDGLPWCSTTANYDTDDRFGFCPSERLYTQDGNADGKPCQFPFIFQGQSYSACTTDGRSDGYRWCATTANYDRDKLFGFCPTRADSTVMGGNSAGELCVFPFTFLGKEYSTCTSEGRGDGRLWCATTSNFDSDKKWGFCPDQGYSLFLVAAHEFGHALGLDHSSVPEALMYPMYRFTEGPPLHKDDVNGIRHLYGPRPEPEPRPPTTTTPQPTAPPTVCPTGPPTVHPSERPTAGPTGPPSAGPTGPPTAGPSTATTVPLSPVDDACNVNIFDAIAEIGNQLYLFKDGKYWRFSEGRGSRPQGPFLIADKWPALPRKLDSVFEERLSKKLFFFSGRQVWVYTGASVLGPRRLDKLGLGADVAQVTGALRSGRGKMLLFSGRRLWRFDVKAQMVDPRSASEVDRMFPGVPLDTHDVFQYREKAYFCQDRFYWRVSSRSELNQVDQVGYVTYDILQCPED

Work on `c1cnc2c(c1)ccc1cccnc12` [1,10-Phenanthroline, 1,10-phenanthroline] yielded an MMP-2 inhibiting effect [1] of 25% and an MMP-9 inhibiting effect [2] of 75%.

For `CC(C)NCC(O)c1ccc(O)c(O)c1` (centres unmarked) [Isoprenaline, isoprenaline], the “Assay of the nonesterified fatty acids in the supernatant (% relative to the control)” value (“Assay … (% relative to the control)” for short) ([3]; 10^−5 M + propanolol 10^−7 M) was 170%.

For `CCCCCCCCCCCC(=O)N(C)CC(=O)O` [N-Lauroylsarcosine], the “Free fatty acid concentration” value [4, 7] was 26.32 ± 0.68 µM, the “Lipolytic activity (compared with the control = 100)” value [4, 7] was 228 and the “Free fatty acid concentration” value [4, 8] was 28.82 ± 6.11 µM. For the same molecule, the “Lipolytic activity (compared with the control = 100)” value [4, 8] was 250.

`CC(C)NCC(O)COc1cccc2ccccc12` (centres unmarked) [Propanolol, propranolol] was tested, and the “Assay … (% relative to the control)” value ([3]; 10^−7 M, alone) was 86% and the “inhibition of basal lipolysis” value ([3]; at 10^−7 M, concentration previously determined) was “about 50%”.

With `CC1(C)[C@@H](O[C@H]2O[C@H](C(=O)[O-])[C@@H](O)[C@H](O)[C@H]2O[C@@H]2O[C@H](C(=O)[O-])[C@@H](O)[C@H](O)[C@H]2O)CC[C@]2(C)[C@H]3C(=O)C=C4[C@@H]5C[C@@](C)(C(=O)O)CC[C@]5(C)CC[C@@]4(C)[C@]3(C)CC[C@@H]12.[K+].[K+]` [Di K glycyrrhizinate, dipotassium glycyrrhizinate] the “Percentage inhibition of hyaluronidase activity” value ([5]; incubation concentration 0.001 % DE) was 20% and the “Percentage inhibition of hyaluronidase activity” value ([5]; incubation concentration 0.1 % DE) was 45%.

`Brc1c(NC2=NCCN2)ccc2nccnc12` [Brimonidine, brimonidine] was tested, and the “Assay … (% relative to the control)” value ([6]; 10^−9 M, alone) was 0% and the inhibition at 0.001 µM ([6]; read-out: inhibition of basal lipolysis) was about 50%.

With `Cc1ccc(N(CC2=NCCN2)c2cccc(O)c2)cc1` [Phentolamine, phentolamine] the “Assay … (% relative to the control)” value ([6]; 10^−7 M + brimonidine 10^−9 M) was 79%.

— patent publication US20040166079A1, “N-Lauroyl amino acid composition for slimming the human body” (priority 2003, published 2004)
